According to ChEMBL document CHEMBL4359853, “Antiproliferative activity of (R)-4'-methylklavuzon on hepatocellular carcinoma cells and EpCAM+/CD133+ cancer stem cells via SIRT1 and Exportin-1 (CRM1) inhibition” (Eur J Med Chem, 2019):
The source made the active and inactive calls. The calls are words filed in the database; no cut-off is given here.

Legend:
[1] = molecular target: Exportin-1 (Homo sapiens) (UniProt O14980); assay: Inhibition of CRM1 in human HepG2 cells assessed as upregulation of p53 by measuring accumulation in nucleus at 0.1 to 10 uM measured after 6 to 24 hrs by DAPI staining based immunofluorescence microscopy analysis; assay type: cell-based
Exportin-1 (Homo sapiens), sequence (O14980 whole entry): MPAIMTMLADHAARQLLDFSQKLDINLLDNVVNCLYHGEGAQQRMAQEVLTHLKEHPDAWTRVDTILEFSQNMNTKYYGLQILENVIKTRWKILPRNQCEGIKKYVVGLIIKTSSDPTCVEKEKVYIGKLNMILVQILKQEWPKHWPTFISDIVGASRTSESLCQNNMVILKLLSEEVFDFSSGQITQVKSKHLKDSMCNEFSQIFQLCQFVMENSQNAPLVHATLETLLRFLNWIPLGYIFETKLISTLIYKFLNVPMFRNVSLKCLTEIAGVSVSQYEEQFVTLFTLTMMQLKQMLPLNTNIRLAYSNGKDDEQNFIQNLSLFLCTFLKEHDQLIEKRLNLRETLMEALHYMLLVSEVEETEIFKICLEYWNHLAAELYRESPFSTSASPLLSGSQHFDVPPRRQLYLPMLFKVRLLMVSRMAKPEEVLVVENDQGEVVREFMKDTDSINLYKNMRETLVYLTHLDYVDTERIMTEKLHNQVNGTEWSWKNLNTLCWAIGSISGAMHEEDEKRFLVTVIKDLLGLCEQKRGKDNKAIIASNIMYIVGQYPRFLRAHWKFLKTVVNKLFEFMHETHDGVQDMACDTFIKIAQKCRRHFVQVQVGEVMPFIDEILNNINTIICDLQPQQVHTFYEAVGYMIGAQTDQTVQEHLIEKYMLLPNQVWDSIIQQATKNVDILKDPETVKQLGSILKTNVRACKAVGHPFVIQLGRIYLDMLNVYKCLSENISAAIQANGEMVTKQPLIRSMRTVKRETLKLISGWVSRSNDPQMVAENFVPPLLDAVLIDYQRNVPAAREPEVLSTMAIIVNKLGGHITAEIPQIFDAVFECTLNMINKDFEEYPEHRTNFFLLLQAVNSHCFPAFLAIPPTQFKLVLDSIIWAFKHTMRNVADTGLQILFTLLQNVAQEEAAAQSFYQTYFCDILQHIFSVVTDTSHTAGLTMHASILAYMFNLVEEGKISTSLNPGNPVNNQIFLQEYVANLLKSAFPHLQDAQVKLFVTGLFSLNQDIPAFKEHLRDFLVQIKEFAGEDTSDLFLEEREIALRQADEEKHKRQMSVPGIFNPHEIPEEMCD

[2] = tested on: Huh-7; assay: Induction of apoptosis in human HuH7 positive EpCAM/CD133 cells measured after 48 hrs by Annexin V-FITC/propidium iodide staining based flow cytometry analysis; assay type: functional, cell-based
[3] = molecular target: Exportin-1 (Homo sapiens) (UniProt O14980); assay: Inhibition of CRM1 in human HuH7 cells assessed as upregulation of p53 by measuring accumulation in nucleus at 0.1 to 10 uM measured after 24 to 48 hrs by DAPI staining based immunofluorescence microscopy analysis; assay type: cell-based
[4] = species on record: Homo sapiens; assay: Inhibition of class 1/2 HDAC in human HuH7 nuclear extract at 0.1 to 81 uM after 24 hrs by fluorescence based assay
[5] = tested on: Huh-7; assay: Induction of apoptosis in human HuH7 negative EpCAM/CD133 cells assessed as change in cell morphology at 0.1 to 10 uM measured after 48 hrs by 2D microscopic analysis; assay type: functional, cell-based
[6] = tested on: HepG2; assay: Induction of 3D spheroid death in human HepG2 cells assessed as upregulation of p53 measured after 24 hrs by DAPI staining based fluorescence microscopy analysis assay; assay type: functional, cell-based
[7] = tested on: Huh-7; assay: Induction of apoptosis in human HuH7 cells expressing positive EpCAM/CD133 assessed as loss of spheroid morphology at 62.5 uM measured after 48 hrs by inverted light microscopy based matrigel assay; assay type: functional, cell-based
[8] = tested on: Huh-7; assay: Upregulation of SIRT1 in human HuH7 cells assessed as fold change at 1 uM measured after 24 hrs by ELISA relative to control; assay type: functional
[9] = tested on: Huh-7; assay: Cytotoxicity against human HuH7 cells assessed as reduction in cell viability measured after 24 hrs by MTT assay; assay type: functional, cell-based; settings: Huh-7, 24 h
[10] = tested on: HepG2; assay: Induction of apoptosis in human 3D HepG2 spheroids at 0.1 uM measured after 24 hrs by propidium iodide staining based immunofluorescence microscopy analysis; assay type: functional, cell-based
[11] = tested on: Huh-7; assay: Induction of apoptosis in human HuH7 cells assessed as increase in early apoptotic cells at 10 uM measured after 48 hrs by Annexin V-FITC/propidium iodide staining based flow cytometry analysis; assay type: functional, cell-based
[12] = tested on: Huh-7; assay: Upregulation of p21 expression in human HuH7 cells at 1 to 3 uM measured after 24 to 72 hrs by SYBR-green based qPCR analysis; assay type: functional, cell-based
[13] = molecular target: Exportin-1 (Homo sapiens) (UniProt O14980); assay: Inhibition of CRM1 in human HuH7 cells assessed as accumulation of RIOK2 in nucleus at 0.1 to 10 uM measured after 6 hrs by DAPI staining based confocal microscopy analysis; assay type: cell-based
[14] = tested on: Huh-7; assay: Induction of reactive oxygen species generation in human HuH7 cells at 1 uM measured after 24 hrs by DCFDA staining assay; assay type: functional, cell-based
[15] = species on record: Homo sapiens; assay: Inhibition of class 1/2 HDAC in human HuH7 negative EpCAM/CD133 cells nuclear extract at 0.1 to 81 uM after 24 hrs by fluorescence based assay
[16] = tested on: Huh-7; assay: Induction of apoptosis in human HuH7 cells expressing negative EpCAM/CD133 assessed as change in cell number at 0.1 to 10 uM measured after 48 hrs by 2D microscopic analysis; assay type: functional, cell-based
[17] = tested on: Huh-7; assay: Induction of apoptosis in human HuH7 cells assessed as change in cell numbers at 0.1 to 10 uM measured after 48 hrs by 2D microscopic analysis; assay type: functional, cell-based
[18] = molecular target: Histone-lysine N-methyltransferase EZH2 (Homo sapiens) (UniProt Q15910); assay: Activation of EZH2 in human HuH7 cells assessed as upregulation of H3K27me3 expression measured after 4 hrs by Western blot analysis; assay type: cell-based
Histone-lysine N-methyltransferase EZH2 (Homo sapiens), sequence (Q15910 whole entry, looked up): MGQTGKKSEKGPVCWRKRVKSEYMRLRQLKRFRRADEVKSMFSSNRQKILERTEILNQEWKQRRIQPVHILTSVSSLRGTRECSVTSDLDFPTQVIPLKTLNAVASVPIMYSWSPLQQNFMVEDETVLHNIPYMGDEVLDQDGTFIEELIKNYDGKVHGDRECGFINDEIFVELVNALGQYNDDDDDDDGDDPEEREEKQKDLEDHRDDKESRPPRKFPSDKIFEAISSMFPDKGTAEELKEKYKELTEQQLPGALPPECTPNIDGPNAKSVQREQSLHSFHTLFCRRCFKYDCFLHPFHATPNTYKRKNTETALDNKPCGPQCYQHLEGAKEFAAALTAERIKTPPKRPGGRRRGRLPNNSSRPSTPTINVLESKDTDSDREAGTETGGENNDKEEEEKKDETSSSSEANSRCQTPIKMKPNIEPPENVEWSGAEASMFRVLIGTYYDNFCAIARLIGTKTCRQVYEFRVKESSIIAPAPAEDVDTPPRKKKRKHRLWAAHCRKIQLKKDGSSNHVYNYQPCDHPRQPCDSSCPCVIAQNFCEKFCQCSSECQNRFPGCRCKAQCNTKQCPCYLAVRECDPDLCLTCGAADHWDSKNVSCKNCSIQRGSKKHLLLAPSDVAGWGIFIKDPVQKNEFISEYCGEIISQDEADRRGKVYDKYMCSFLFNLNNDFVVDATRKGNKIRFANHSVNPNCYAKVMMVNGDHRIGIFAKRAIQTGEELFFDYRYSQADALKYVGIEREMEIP

[19] = tested on: Huh-7; assay: Upregulation of p21 expression in human HuH7 cells expressing positive EpCAM/CD133 at 1 to 3 uM measured after 72 hrs by SYBR-green based qPCR analysis; assay type: functional, cell-based
[20] = tested on: Huh-7; assay: Cell cycle arrest in human HuH7 cells assessed as increase in accumulation at G1 phase at 1 to 1.25 uM measured after 48 hrs by propidium iodide staining based flow cytometry analysis; assay type: functional
[21] = tested on: HepG2; assay: Cytotoxicity against human HepG2 cells assessed as reduction in cell viability measured after 48 hrs by MTT assay; assay type: functional, cell-based; settings: HepG2, 48 h
[22] = tested on: Huh-7; assay: Upregulation of SIRT1 in human HuH7 cells assessed as fold change at 5 uM measured after 24 hrs by ELISA relative to control; assay type: functional
[23] = tested on: Huh-7; assay: Cytotoxicity against human HuH7 cells negative EpCAM/CD133 assessed as reduction in cell viability measured after 24 hrs by MTT assay; assay type: functional, cell-based; settings: Huh-7, 24 h
[24] = tested on: Huh-7; assay: Cytotoxicity against human HuH7 cells negative EpCAM/CD133 assessed as reduction in cell viability measured after 48 to 72 hrs by MTT assay; assay type: functional, cell-based
[25] = molecular target: Exportin-1 (Homo sapiens) (UniProt O14980); assay: Inhibition of CRM1 in human HepG2 cells assessed as accumulation of RIOK2 in nucleus at 1 and 10 uM measured after 24 hrs by DAPI staining based confocal microscopy analysis; assay type: cell-based
[26] = molecular target: T1, NAD-dependent protein deacetylase sirtuin-1 (Homo sapiens) (UniProt Q96EB6); assay: Inhibition of human recombinant SIRT1 using FLUOR DE LYS SIRT1, deacetylase as substrate preincubated for 2 mins followed by substrate addition measured after 1 hr in presence of NAD+ by fluorescence assay
T1 sequence (whole entry): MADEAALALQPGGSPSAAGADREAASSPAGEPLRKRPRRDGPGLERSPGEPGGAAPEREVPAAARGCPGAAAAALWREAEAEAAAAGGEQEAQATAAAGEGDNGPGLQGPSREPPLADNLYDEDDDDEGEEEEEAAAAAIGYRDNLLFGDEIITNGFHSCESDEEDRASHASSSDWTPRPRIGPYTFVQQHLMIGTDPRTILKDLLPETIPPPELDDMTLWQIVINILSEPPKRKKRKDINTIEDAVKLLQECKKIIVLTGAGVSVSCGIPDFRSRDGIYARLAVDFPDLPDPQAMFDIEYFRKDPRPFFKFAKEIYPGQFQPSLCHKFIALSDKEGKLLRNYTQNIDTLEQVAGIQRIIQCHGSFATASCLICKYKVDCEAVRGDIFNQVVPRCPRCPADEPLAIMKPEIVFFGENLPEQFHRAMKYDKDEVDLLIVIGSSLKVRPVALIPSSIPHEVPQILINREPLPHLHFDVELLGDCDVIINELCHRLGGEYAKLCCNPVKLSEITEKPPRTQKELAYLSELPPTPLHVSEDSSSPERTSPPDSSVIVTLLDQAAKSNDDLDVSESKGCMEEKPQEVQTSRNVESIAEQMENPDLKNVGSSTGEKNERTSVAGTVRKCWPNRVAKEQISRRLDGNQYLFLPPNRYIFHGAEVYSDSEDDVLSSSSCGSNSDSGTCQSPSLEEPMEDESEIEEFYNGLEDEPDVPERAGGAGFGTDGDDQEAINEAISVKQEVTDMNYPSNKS

[27] = species on record: Homo sapiens; assay: Inhibition of Sirtuin/HDAC in human HUH7 cells assessed as decrease in enzymatic activity at 0.10 to 5 uM measured after 24 hrs relative to control; assay type: cell-based
[28] = molecular target: Histone-lysine N-methyltransferase EZH2 (Homo sapiens) (UniProt Q15910); assay: Activation of EZH2 in human HuH7 cells expressing positive EpCAM/CD133 assessed as upregulation of H3K27me3 expression measured after 4 hrs by Western blot analysis; assay type: cell-based

Structure (SMILES): Cc1ccc([C@H]2CC=CC(=O)O2)c2ccccc12
- inhibition [1]: Active
- Activity [2]: Dose-dependent effect
- inhibition [3]: Active
- inhibition [4]: inactive
- Activity [5]: Active
- Activity [6]: Dose-dependent effect
- Activity [7]: Active
- fold change (FC) [8]: 3.3
- IC50 [9]: 10 µM
- Activity [10]: inactive
- Activity [11]: Active
- Activity [12]: Active
- inhibition [13]: Active
- Activity [14]: Active
- Activity [15]: inactive
- Activity [16]: Active
- Activity [17]: Active
- Activity [18]: Active
- Activity [19]: Active
- Activity [20]: Active
- IC50 [21]: 0.25 µM
- fold change (FC) [22]: 2
- IC50 [23]: 10 µM
- IC50 [24]: 1.25 µM
- inhibition [25]: Active
- inhibition [26]: Dose-dependent effect
- inhibition [27]: 35 to 40%
- Activity [28]: Active
